The results in this text go back to article PMC10536928, “Discovery of New Pyrrolo[2,3-d]pyrimidine Derivatives as Potential Multi-Targeted Kinase Inhibitors and Apoptosis Inducers” (Pharmaceuticals, 2023).

Common to all, as to assay type: cell-based
Assay [1] relates to HepG2 cells. Briefly: Cell cycle analysis (propidium iodide flow cytometry). The text has this: The objective of the study was to evaluate the influence of the synthesized compounds on the progression of the cell cycle in HepG2 cells.
The observed modifications in cell cycle distribution following drug treatment indicate a potential mechanism of action involving cell cycle arrest, a commonly employed therapeutic strategy for suppressing cancer cell proliferation. By impeding cells in the G0–G1 phase, drugs can effectively prevent them from proceeding to the S phase, where DNA replication takes place, and ultimately lead to cell death. […] The cell cycle distribution index (CDI) is a metric that quantifies the rate of cell proliferation and can be derived from the percentage of cells in each phase of the cell cycle. The CDI was calculated using the formula: CDI = (G2/M + S)/[…], wherein G0/G1, S, and G2/M denote the percentages of cells in the respective phases of the cell cycle. The CDI values for the control and compound 5k were determined to be 1.35 and 1.03, respectively.
To investigate the impact of the synthesized compound 5k on cell cycle progression, the ab139418 Propidium Iodide flow cytometry kit/BD was utilized. Initially, HepG2 cells were seeded in triplicate at a density of 2 × 10^5 cells per well in 6-well plates and incubated for 24 h. […] Following treatment, the HepG2 cells were fixed with 70% ethanol and incubated for 12 h at 4 °C. Subsequently, the wells were washed with cold PBS, treated with RNase A (100 µL) at 37 °C for 30 min, and stained with Propidium Iodide (400 µL) in a dark environment at room temperature for another 30 min. The labeled cells were then analyzed using the Epics XLMCL™ flow cytometer equipment (Beckman Coulter, Apeldoorn, the Netherlands). Finally, the experimental results were analyzed using Turku Centre for Biotechnology software version 2.5.1 (Turku, Finland).
On the technique in general: A flow cytometer gives signals particle by particle.

Assay [2] has as its system HepG2 cells. Briefly: Annexin-V/propidium iodide double staining assay. The settings on record: compound at its IC50, 24 h. The procedure:
To investigate the type of cell death induced by compound 5k, flow cytometry analysis was conducted. […] Subsequently, the cells were double stained with Annexin V and propidium iodide (PI). […] Apoptosis is a process of programmed cell death that occurs naturally in the body, while necrosis is a type of cell death that occurs due to damage or injury to the cell. […] In the early stage of the experiment, the percentage of apoptotic cells was 0.51% in the control group and 15.63% in the 5k treated group. In the late stage, the percentage of apoptotic cells was 0.29% in the control group and 9.74% in the 5k treated group.
In contrast, the percentage of necrotic cells was also higher in the 5k treated group compared to the control group. The percentage of necrotic cells was 1.58% in the control group and 4.17% in the 5k treated group. […] Further studies are needed to determine the underlying mechanisms of this effect and to assess the potential therapeutic applications of compound 5k in the treatment of diseases involving abnormal cell death.
To investigate the apoptotic effects of the synthesized compound 5k, HepG2 cells were cultured in triplicate at a density of 2.0 × 10^5 cells per well. Subsequently, the cells were treated with the selected compounds at their respective IC50 values determined by the MTT assay. After 24 h, the cells were detached using trypsin, collected, and then centrifuged. Following two washes with PBS, the cells were resuspended in 0.1 mL of binding buffer. Dual staining was performed by adding Annexin V-FITC (5 µL) and propidium iodide (5 µL) to the cell suspension, which was then incubated in the dark for 15 min at room temperature. Flow cytometry analysis was performed using the Epics XL-MCL™ flow cytometry equipment (Beckman Coulter, Apeldoorn, The Netherlands) with an excitation wavelength of 488 nm and an emission wavelength of 530 nm. Finally, the experimental results were analyzed using flowing “Turku Centre for Biotechnology” software, version 2.5.1 (Turku, Finland).

Assay [3] deals with epithelioid cervix carcinoma (HeLa). Briefly: MTT cytotoxicity assay. The settings on record: Homo sapiens, 24 h exposure, mean ± SD of triplicate.

Each structure is given as a SMILES string.

Broadly, the IC50 is the concentration at which inhibition is half-maximal. Higher therefore signals a need for much substance. Take `O=C(N/N=C/c1ccc(Cl)c(Cl)c1)c1ccc(Nc2ncnc3[nH]ccc23)cc1` [Compound 5k, (E)-4-((7H-Pyrrolo[2,3-d]pyrimidin-4-yl)amino)-N’-(3,4-dichlorobenzylidene)benzohydrazide]: the “Cell Cycle Distribution Index (CDI)” value in the assay on HepG2 cells [1] (CDI = (G2/M + S)/G0/G1, control 1.35) is given as 1.03. The “DNA Content (%) %G2/M” value with HepG2 cells [1] (compound at its IC50, 24 h, control 19.38) turned out to be 18.3%. In addition, in the assay with HepG2 cells [1] (compound at its IC50, 24 h, control 36.76), the “DNA Content (%) %S” value stood at 32.52%. The “DNA Content (%) %G0–G1” value in the assay on HepG2 cells [1] (compound at its IC50, 24 h, control 43.86) came to 49.18%. For the same compound, the “Apoptosis Late” value in the assay on HepG2 cells [2] (control 0.29) worked out at 9.74%. The “Apoptosis Early” value with HepG2 cells [2] (control 0.51) is 15.63%. This compound yielded a Necrosis in the assay on HepG2 cells [2] (control 1.58) of 4.17%. Besides, in assay [3], the IC50 was found to be 57.8 ± 3.1 µM.
